Consider two compounds from patent publication US20080161422A1, “Methods and Compositions for the Treatment of Lipid-Associated Disorders” (priority 2005, published 2008).

For assay [1], the system named is women suffering from painful menstrual cramps. To be noted: 80 women; 100 mg niacin twice daily, then every 2 to 3 hours during heavy cramps; cited from earlier work.
The target in a further assay is T1, mouse niacin receptor (Mus musculus, UniProt Q9EP66).
T1 construct: expressed in transfected cells; host or cells: CHO cells
The assay is described as follows: MAP kinase ELISA (phosphoERK1/2) in CHO cells expressing the mouse niacin receptor. The assay is classed as cell-based. Particulars: compared to niacin. Here is the method:
A kit from Biosource (phosphoERK1/2 pT185pY187 ELISA, Catalog #KHO-0091) was used according to the following protocol.
The cells were serum-starved overnight prior to stimulating the cells with compound.
A. Compounds were dissolved in DMSO. […] PMA (100 ng/ml) was used as a positive control. B. Cell dishes were taken out of the incubator and placed on a rocker set to gentle rocking (set speed at 4). Compound was carefully added and cells were returned to the incubator to incubate for 5 min. At 4.5 min, the medium was aspirated from dishes in the order that the compound was added. Then 2 ml cold PBS was added and excess medium was removed by gentle swirling. The PBS was aspirated and 1 ml of PBS was added (1 ml for confluent 6 cm dish).
A. Cells were scraped from dish with a rubber policeman and transferred to a microfuge tube, then centrifuged at 3000 rpm at 4° C. for 5 minutes. B. The PBS was aspirated and cell pellet lysed in Cell Extraction Buffer (0.1% SDS) (250-300 μl for confluent 6 cm dish) for 30 min. on ice with vortexing at 10 min intervals. C. The mixture was then centrifuged at max speed (16,000×G) for 15 min. at 4° C. D. Clarified lysates were transferred to new microfuge tubes and protein concentration measure. […]
A. All reagents were at room temperature and mixed before use. […] The number of 8 well strips needed for assay was determined and bag was sealed and returned to 4° C. […]

The target of assay [2] is T2, niacin receptor (Homo sapiens, UniProt Q8TDS4). The assay is described as follows: Binding to the niacin receptor.
Assay [3] concerns the target T2, niacin receptor. The assay is described as follows: MAP kinase ELISA (phosphoERK1/2) in CHO cells expressing the human niacin receptor. Particulars: compared to niacin.

“Also recorded” adds a separate entry of the source.

T2 sequence (Q8TDS4 whole entry): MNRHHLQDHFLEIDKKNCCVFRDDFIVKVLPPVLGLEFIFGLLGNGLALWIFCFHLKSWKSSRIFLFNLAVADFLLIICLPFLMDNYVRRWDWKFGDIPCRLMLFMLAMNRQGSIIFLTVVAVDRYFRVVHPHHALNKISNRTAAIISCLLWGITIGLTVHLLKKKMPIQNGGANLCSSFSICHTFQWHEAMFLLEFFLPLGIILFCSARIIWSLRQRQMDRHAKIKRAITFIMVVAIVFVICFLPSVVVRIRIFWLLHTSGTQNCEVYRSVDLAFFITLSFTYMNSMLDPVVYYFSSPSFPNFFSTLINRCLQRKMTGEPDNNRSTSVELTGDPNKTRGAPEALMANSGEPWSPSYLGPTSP
T1 sequence (Q9EP66 whole entry): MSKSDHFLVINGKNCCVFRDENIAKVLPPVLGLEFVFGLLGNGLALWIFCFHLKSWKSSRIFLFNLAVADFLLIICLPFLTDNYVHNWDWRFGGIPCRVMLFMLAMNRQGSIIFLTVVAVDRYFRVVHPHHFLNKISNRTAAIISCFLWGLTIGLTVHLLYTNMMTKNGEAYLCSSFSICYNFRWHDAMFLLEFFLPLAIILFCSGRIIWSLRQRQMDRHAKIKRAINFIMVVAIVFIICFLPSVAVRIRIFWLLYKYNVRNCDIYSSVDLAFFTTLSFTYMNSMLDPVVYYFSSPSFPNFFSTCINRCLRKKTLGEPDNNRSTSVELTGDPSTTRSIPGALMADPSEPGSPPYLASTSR

As to `O=C(O)c1cccnc1` [niacin, nicotinic acid], the “subjects experiencing significant relief” value in assay [1] is on record as “About 90%”.

Consider `c1cncc(-c2nn[nH]n2)c1` [Compound 12], for which the MAP kinase activation entry on mouse niacin receptor and at niacin receptor [3] was “closely matches the profile of niacin; also recorded: behaves like niacin in a MAP kinase assay” in each case. For the same compound, the “binding to the niacin receptor” value on niacin receptor [2] is listed as “binds to the niacin receptor”.
